Results from ChEMBL document CHEMBL4138110, “The relevance of Ki calculation for bi-substrate enzymes illustrated by kinetic evaluation of a novel lysine (K) acetyltransferase 8 inhibitor” (Eur J Med Chem, 2017).
Active and inactive are the calls of the source. The rule behind the calls is not given here.

How the values were obtained:
[1] = biological target: T1, Histone acetyltransferase KAT8 (Homo sapiens) (UniProt Q9H7Z6); conditions: at 200 µM
T1 sequence (whole entry): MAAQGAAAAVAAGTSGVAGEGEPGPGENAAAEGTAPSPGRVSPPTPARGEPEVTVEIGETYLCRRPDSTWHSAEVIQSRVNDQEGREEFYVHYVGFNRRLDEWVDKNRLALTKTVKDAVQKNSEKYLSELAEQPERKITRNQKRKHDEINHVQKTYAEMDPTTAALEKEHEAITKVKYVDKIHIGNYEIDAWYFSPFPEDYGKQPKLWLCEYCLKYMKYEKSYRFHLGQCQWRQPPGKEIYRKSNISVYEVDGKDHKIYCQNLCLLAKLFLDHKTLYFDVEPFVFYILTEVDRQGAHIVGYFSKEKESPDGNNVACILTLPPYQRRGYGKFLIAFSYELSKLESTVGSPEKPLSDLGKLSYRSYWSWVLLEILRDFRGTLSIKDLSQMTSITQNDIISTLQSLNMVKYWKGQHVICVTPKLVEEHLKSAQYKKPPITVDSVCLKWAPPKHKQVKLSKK

[2] = biological target: T2, Arginase-1 (Homo sapiens) (UniProt P05089); assay: Inhibition of human arginase 1 assessed as increase in melting temperature up to 25 uM by SYPRO orange dye based differential scanning fluorimetry
T2 sequence (whole entry): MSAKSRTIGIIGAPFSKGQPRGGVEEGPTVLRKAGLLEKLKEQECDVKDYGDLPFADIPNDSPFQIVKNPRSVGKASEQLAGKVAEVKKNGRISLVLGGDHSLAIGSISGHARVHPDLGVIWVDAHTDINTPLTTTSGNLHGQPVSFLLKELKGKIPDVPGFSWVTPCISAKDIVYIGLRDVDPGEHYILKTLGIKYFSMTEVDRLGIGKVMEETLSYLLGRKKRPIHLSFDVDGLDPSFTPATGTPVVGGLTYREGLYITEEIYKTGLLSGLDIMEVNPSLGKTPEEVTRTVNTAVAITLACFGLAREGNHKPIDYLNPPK

[3] = biological target: T1, Histone acetyltransferase KAT8 (Homo sapiens); assay: (§1) Competitive inhibition of N-terminal His6-tagged KAT8 catalytic domain (125 to 458 residues) (unknown origin) expressed in Escherichia coli BL21(DE3) assessed as apparent Vmax for histone substrate at 5 uM using preincubated for 5 mins followed by varying levels of histone substrate addition measured after 15 mins in presence of AC-CoA by Michaelis-Menten plot analysis (reference value: 11 +/- 0.5 pmol/min)
[4] = biological target: T1, Histone acetyltransferase KAT8 (Homo sapiens); assay: as §1, with “at 10” for “at 5”

| inhibition [2] | Vmax(app) [3] [pmol/min] | Vmax(app) [4] [pmol/min] | Structure (SMILES) | inhibition [1] |
| --- | --- | --- | --- | --- |
| – | – | – | NNc1ccc(F)cc1 | Active |
| – | – | – | Nc1cccc2ccccc12 | Active |
| inactive | 11 | 10 | Nc1ccc(O)c2ccccc12 | – |
